Data taken from patent US10065990B2, “Cyclic peptide compound, and preparation method, pharmaceutical composition and use thereof” (HANGZHOU GUANYU BIO-MEDICAL CO., LTD, priority 2013, dated 2018).
Where two headings read alike, the source gives them in different places.

How the values were obtained:
HDAC1 = HDAC1 (Homo sapiens, UniProt Q13547); assay: HDAC biochemical activity measurement (fluorescent substrate deacetylation);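 further: fluorogenic acetyl-lysine substrate (20 µM) deacetylated by HDAC1, then developer releases fluorophore read at 360 nm excitation and 460 nm emission, inhibitor incubated 30 min at 37 °C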
HDAC2 = HDAC2 (Homo sapiens, UniProt Q92769); assay: as above; settings: 37° C. 30 minutes;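 further: HDAC2 enzyme with an acetyl-lysine fluorescent substrate, then developer added, fluorescence read at excitation 360 nm and emission 460 nm, inhibition measured across several compound concentrations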
[1] = tested on: A549 (human lung cancer cells); assay: MTT cancer cell growth inhibition; format: cell-based; settings: Homo sapiens, A549, 72 h, MTT
In short: (§1)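 Seed 1500 cells/well, incubate overnight. Add compound, 10^−5 to 10^−10 M final, n=3; culture 72 h, 37° C., 5% CO2. Add MTT, 4 h. Discard supernatant, dissolve in DMSO. Read 570 nm; calculate viability and GI50.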

[2] = tested on: BGC-823 (human gastric cancer cells); assay: MTT cancer cell growth inhibition; format: cell-based; settings: Homo sapiens, BGC-823, 72 h, MTT
In short: as §1

[3] = tested on: Bel-7402 (human hepatoma cells); assay: MTT cancer cell growth inhibition; format: cell-based; settings: Homo sapiens, Bel-7402, 72 h, MTT, 72 hours incubation, Bel-7402 cells; read-out: GI50 Bel-7402
In short: as §1

[4] = tested on: DU145 (human prostate cancer cells); assay: MTT cancer cell growth inhibition; format: cell-based; settings: Homo sapiens, DU-145, 72 h, MTT
In short: as §1

[5] = tested on: H1975 (non-small cell lung adenocarcinoma); assay: MTT cancer cell growth inhibition; format: cell-based; settings: Homo sapiens, NCI-H1975, 72 h, MTT, 72 hours incubation, H1975 cells; read-out: GI50 H1975
In short: as §1

[6] = tested on: HCC827 (human non-small cell lung cancer cells); assay: MTT cancer cell growth inhibition; format: cell-based; settings: Homo sapiens, HCC827, 72 h, MTT, 72 hours incubation, HCC827 cells; read-out: GI50 HCC827
In short: as §1

[7] = tested on: HT1080 (human fibrosarcoma cells); assay: MTT cancer cell growth inhibition; format: cell-based; settings: Homo sapiens, HT-1080, 72 h, MTT
In short: as §1

[8] = tested on: Hela (human cervical cancer cells); assay: MTT cancer cell growth inhibition; format: cell-based; settings: Homo sapiens, HeLa, 72 h, MTT
In short: as §1

[9] = tested on: Huh-7 (human hepatoma cells); assay: MTT cancer cell growth inhibition; format: cell-based; settings: Homo sapiens, Huh-7, 72 h, MTT, 72 hours incubation, Huh-7 cells; read-out: GI50 Huh-7
In short: as §1

[10] = tested on: K562 (human leukemia cells); assay: MTT cancer cell growth inhibition; format: cell-based; settings: Homo sapiens, K562, 72 h, MTT, 72 hours incubation, K562 cells; read-out: GI50 K562
In short: as §1

[11] = tested on: KBM-5 (human chronic myelogenous leukemia); assay: MTT cancer cell growth inhibition; format: cell-based; settings: Homo sapiens, KBM5, 72 h, MTT, 72 hours incubation, KBM-5 cells; read-out: GI50 KBM-5
In short: as §1

[12] = tested on: KBM5-T315I (human chronic myelogenous leukemia); assay: MTT cancer cell growth inhibition; format: cell-based; settings: Homo sapiens, 72 h, MTT, 72 hours incubation, KBM5-T315I cells; read-out: GI50 KBM5-T315I
In short: as §1

[13] = tested on: MCF-7 (human breast cancer cells); assay: MTT cancer cell growth inhibition; format: cell-based; settings: Homo sapiens, MCF7, 72 h
In short: as §1

[14] = tested on: MDA-MB-231 (breast cancer cells); assay: MTT cancer cell growth inhibition; format: cell-based; settings: Homo sapiens, MDA-MB-231, 72 h, read-out: GI50 MDA-MB-231, MTT, 72 hours incubation, MDA-MB-231 cells
In short: as §1

[15] = tested on: MOLT-4 (human acute lymphoblastic leukemia cells); assay: MTT cancer cell growth inhibition; format: cell-based; settings: Homo sapiens, MOLT-4, 72 h, MTT
In short: as §1

[16] = tested on: N-87 (human gastric cancer cells); assay: MTT cancer cell growth inhibition; format: cell-based; settings: Homo sapiens, 72 h, MTT, 72 hours incubation, N-87 cells; read-out: GI50 N-87
In short: as §1

[17] = tested on: PANC-1 (Pac-1, human pancreatic cancer cells); assay: MTT cancer cell growth inhibition; format: cell-based; settings: Homo sapiens, PANC-1, 72 h, MTT
In short: as §1

[18] = tested on: SGC-7901 (human gastric cancer cells); assay: MTT cancer cell growth inhibition; format: cell-based; settings: Homo sapiens, SGC-7901, 72 h, MTT, 72 hours incubation, SGC-7901 cells; read-out: GI50 SGC-7901
In short: as §1

[19] = tested on: U937 (human leukemia cells); assay: MTT cancer cell growth inhibition; format: cell-based; settings: Homo sapiens, U-937, 72 h, MTT
In short: as §1

[20] = tested on: lncap (prostate cancer cells); assay: MTT cancer cell growth inhibition; format: cell-based; settings: Homo sapiens, LNCaP, 72 h, MTT
In short: as §1

HDAC3 = HDAC3 (Homo sapiens, UniProt O15379); assay: HDAC biochemical activity measurement (fluorescent substrate deacetylation);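 further: fluorogenic acetyl-lysine substrate (20 µM) deacetylated by HDAC3, then developer added for 15 min at room temperature, release of fluorophore read at excitation 360 nm, emission 460 nm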; settings: read-out: IC50 HDAC3; HDAC3; 37° C. 30 minutes
[21] = HDAC1, 37° C. 30 minutes, read-out: IC50 HDAC1
[22] = Table 2, read-out: IC50 HDAC1, a (compounds of the present invention)
[23] = 72 hours incubation, read-out: GI50 A54
[24] = 72 hours, present invention, read-out: GI50 A549, a
[25] = 72 hours incubation, read-out: GI50 BG
[26] = 72 hours, present invention, read-out: GI50 BGC823, a
[27] = 72 hours incubation, read-out: GI50 Du1
[28] = 72 hours, present invention, read-out: GI50 Du145, a
[29] = 72 hours incubation, read-out: GI50 HT1
[30] = 72 hours, present invention, read-out: GI50 HT1080, a
[31] = 72 hours incubation, read-out: GI50 Hela
[32] = 72 hours, present invention, read-out: GI50 Hela, a
[33] = 72 hours incubation, read-out: GI50 MCF
[34] = 72 hours, present invention, read-out: GI50 MCF7, a
[35] = 72 hours incubation, read-out: GI50 Mol
[36] = 72 hours, present invention, read-out: GI50 Molt-4, a
[37] = 72 hours incubation, read-out: GI50 PAN
[38] = 72 hours, present invention, read-out: GI50 PANC-1, a
[39] = 72 hours incubation, read-out: GI50 U93
[40] = 72 hours, present invention, read-out: GI50 U937, a
[41] = 72 hours incubation, read-out: GI50 lnca
[42] = 72 hours, present invention, read-out: GI50 lncap, a

Sequence of HDAC3 (O15379 whole entry, species assumed): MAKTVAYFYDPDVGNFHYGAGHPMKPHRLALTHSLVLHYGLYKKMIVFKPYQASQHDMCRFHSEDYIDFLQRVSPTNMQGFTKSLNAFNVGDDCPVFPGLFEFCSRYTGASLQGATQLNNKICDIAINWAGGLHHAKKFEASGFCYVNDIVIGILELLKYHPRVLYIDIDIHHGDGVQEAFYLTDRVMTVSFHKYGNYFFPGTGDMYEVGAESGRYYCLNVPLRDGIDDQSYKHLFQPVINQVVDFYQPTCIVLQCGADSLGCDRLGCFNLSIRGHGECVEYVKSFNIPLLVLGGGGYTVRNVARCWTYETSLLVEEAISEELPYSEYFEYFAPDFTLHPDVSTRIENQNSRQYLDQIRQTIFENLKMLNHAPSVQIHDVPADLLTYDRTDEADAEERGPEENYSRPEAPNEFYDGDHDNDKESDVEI
Sequence of HDAC3 (Q9Y618 395-489 partner limits assumed, species assumed): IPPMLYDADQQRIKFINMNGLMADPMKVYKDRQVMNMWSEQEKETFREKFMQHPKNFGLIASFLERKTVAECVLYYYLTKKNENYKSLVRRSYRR
Sequence of HDAC2 (Q92769 whole entry, species assumed): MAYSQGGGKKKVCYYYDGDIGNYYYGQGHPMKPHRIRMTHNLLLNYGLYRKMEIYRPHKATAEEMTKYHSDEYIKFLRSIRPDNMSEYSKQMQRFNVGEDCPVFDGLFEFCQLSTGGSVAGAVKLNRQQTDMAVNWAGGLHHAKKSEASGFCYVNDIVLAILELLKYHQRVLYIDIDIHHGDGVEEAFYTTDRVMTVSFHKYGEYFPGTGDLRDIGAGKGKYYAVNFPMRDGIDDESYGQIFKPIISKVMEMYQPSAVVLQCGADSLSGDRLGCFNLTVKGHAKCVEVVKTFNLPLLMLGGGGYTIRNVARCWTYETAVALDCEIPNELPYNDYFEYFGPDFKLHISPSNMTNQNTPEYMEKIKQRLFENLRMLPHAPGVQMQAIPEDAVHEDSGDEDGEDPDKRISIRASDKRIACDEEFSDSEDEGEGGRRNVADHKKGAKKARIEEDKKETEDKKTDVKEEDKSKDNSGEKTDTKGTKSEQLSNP
Sequence of HDAC1 (Q13547 whole entry, species assumed): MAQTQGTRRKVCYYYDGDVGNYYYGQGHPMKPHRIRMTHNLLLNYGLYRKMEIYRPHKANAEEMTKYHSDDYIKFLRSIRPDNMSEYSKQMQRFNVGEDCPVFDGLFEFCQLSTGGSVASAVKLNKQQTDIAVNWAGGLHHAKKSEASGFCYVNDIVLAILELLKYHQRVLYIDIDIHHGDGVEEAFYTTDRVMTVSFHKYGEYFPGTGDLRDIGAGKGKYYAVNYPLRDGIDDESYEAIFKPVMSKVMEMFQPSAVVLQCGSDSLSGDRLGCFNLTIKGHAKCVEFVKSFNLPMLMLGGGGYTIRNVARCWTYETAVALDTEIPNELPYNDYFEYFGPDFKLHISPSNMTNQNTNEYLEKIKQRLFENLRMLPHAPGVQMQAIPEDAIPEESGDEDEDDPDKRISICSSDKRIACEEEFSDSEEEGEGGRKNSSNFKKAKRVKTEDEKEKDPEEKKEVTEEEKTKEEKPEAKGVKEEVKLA

Row | IC50 (HDAC1; [21]) | IC50 (HDAC1; [22]) | IC50 (HDAC2) | GI50 [1, 23] | GI50 [1, 24] | GI50 [2, 25] | GI50 [2, 26] | GI50 [3] | GI50 [4, 27] | GI50 [4, 28] | GI50 [5] | GI50 [6] | GI50 [9] | GI50 [10] | GI50 [11] | GI50 [12] | GI50 [14] | GI50 [16] | GI50 [18] | IC50 (HDAC3) | Structure (SMILES) | also measured
1 | 29 nM | < 30 nM | 55 nM | 430 nM | 430 nM | 410 nM | 410 nM | 76 nM | 30 nM | 33 nM | 42 nM | 23 nM | 43 nM | 63 nM | 62 nM | 26 nM | 86 nM | 37 nM | 35 nM | 45 nM | C/C=C1\NC(=O)c2cccc(n2)CNC(=O)C[C@@H](/C=C/CCSC(=O)CCCCCCC)OC(=O)[C@H](C)NC1=O [Compound 11] | IC50 (HDAC1; Table 3, read-out: IC50 HDAC1, D (non-substituent)): 29 nM; GI50 [7, 29]: 140 nM; GI50 [7, 30]: 140 nM; GI50 [8, 31]: 120 nM; GI50 [8, 32]: 120 nM; GI50 [13, 33]: 50 nM; GI50 [13, 34]: 50 nM; GI50 [15, 35]: 10 nM; GI50 [15, 36]: 17 nM; GI50 [17, 37]: 60 nM; GI50 [17, 38]: 60 nM; GI50 [19, 39]: 30 nM; GI50 [19, 40]: 35 nM; GI50 [20, 41]: 20 nM; GI50 [20, 42]: 25 nM
2 | 44 nM | < 50 nM | 83 nM | – | 16 nM | – | 140 nM | 31 nM | – | 12 nM | 82 nM | 29 nM | 55 nM | 65 nM | 52 nM | 66 nM | 46 nM | 26 nM | 56 nM | 59 nM | C/C=C1\NC(=O)c2cccc(n2)CNC(=O)C[C@@H](/C=C/CCSC(=O)CCCCCCC)OC(=O)[C@H](c2ccc(O)cc2)NC1=O [Compound 238] | GI50 ([1]; A549 cells, 72 hours incubation, read-out: GI50 A54): 10 nM; GI50 ([2]; BGC-823 cells, 72 hours incubation, read-out: GI50 BG): 140 nM; GI50 ([4]; DU145 cells, 72 hours incubation, read-out: GI50 Du1): 10 nM; GI50 ([7]; HT1080 cells, 72 hours incubation, read-out: GI50 HT1): 20 nM; GI50 [7, 30]: 26 nM; GI50 ([8]; Hela cells, 72 hours incubation, read-out: GI50 Hela): 50 nM; GI50 [8, 32]: 55 nM; GI50 [13, 34]: 23 nM; GI50 ([13]; MCF-7 cells, 72 hours incubation, read-out: GI50 MCF): 20 nM; GI50 [15, 36]: 8 nM; GI50 [17, 38]: 77 nM; GI50 ([17]; PANC-1 cells, 72 hours incubation, read-out: GI50 PAN): 70 nM; GI50 [19, 40]: 15 nM; GI50 ([19]; U937 cells, 72 hours incubation, read-out: GI50 U93): 10 nM; GI50 [20, 42]: 110 nM; GI50 ([20]; lncap cells, 72 hours incubation, read-out: GI50 lnca): 110 nM
3 | 11 nM | – | 43 nM | 40 nM | – | 30 nM | – | 62 nM | 20 nM | – | 19 nM | 62 nM | 43 nM | 29 nM | 61 nM | 57 nM | 43 nM | 39 nM | 47 nM | 37 nM | C/C=C1\NC(=O)c2nc(ccc2F)CNC(=O)C[C@@H](/C=C/CCSC(=O)CCCCC)OC(=O)[C@H](C(C)C)NC1=O [Compound 36] | IC50 (HDAC1; Table 3, column C, read-out: IC50 HDAC1, C (six-membered ring with substituents)): 11 nM; GI50 [7, 29]: 60 nM; GI50 [8, 31]: 60 nM; GI50 [13, 33]: 50 nM; GI50 [15, 35]: 40 nM; GI50 [17, 37]: 60 nM; GI50 [19, 39]: 20 nM; GI50 [20, 41]: 40 nM
